Test results as given in patent US7517873B2, “Substituted pyrimidodiazepines” (Hoffman-La Roche Inc., priority 2007, dated 2009).
pIC50: −log10 of the molar value.

target: T1, GST-PLK1 (Homo sapiens, UniProt P53350); test: Biochemical Characterization Assay: GST-PLK1 kinase HTRF assay with GST-p53 substrate; settings: full-length GST-PLK1, GST-p53 and ATP, 37° C. for 35 minutes, HTRF signal
T1 construct: Full-length, active GST-PLK1 is purified from Sf9 insect cells; made in house; host or cells: Sf9 insect cells
T1 sequence (P53350 whole entry): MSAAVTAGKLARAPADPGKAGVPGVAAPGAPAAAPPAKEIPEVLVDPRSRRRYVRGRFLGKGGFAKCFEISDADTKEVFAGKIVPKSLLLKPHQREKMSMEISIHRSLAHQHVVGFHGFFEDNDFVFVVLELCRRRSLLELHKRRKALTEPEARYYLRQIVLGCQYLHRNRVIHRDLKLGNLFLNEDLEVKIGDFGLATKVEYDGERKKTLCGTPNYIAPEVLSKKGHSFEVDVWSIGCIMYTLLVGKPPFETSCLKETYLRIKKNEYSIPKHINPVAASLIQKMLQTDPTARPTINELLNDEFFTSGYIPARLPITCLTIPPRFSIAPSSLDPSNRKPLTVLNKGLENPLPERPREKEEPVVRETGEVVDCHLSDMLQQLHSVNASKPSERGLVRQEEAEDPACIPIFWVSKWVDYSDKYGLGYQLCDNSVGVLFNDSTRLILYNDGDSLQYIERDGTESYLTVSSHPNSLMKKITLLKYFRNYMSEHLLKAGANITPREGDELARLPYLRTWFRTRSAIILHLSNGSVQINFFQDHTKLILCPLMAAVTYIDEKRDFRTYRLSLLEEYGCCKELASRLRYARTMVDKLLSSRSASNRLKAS
Protocol: Biochemical Characterization Assay
Full-length, active GST-PLK1 is purified from Sf9 insect cells, and full-length GST-p53 is purified from E. coli. Anti-phospho p53 antibody is from Cell Signaling Technology. Europium-conjugated anti-rabbit antibody is from PerkinElmer Life and Analytical Sciences. APC-conjugated anti-GST antibody is from Prozyme.
To assay compounds of the invention, two microliters of test compound (0.6 nM-4 mM) in DMSO or plain DMSO for control wells, 38 microliters of 20 mM HEPES pH 7, 50 mM NaCl, 10 mM MgCl2, 0.5 mM TCEP, 0.1 mM sodium orthovanadate, 0.1 mg/mL BSA, and 0.05% Triton X-100 (Kinase Assay Buffer) are added. […] Six microliters of GST-PLK1 (3 ug/mL) in Kinase Assay Buffer are then added and the solution incubated at 37° C. for 35 minutes. Six microliters of solution containing 43 mM EDTA to stop the reaction and a 1:600 dilution of anti-phospho-p53 antibody in 20 mM HEPES pH 7, 50 mM NaCl, and 0.5 mg/mL BSA (Antibody Binding Buffer) are added and the solution incubated at 37° C. for 30 minutes. […] The HTRF signal is read on an Envision reader from PerkinElmer Life and Analytical Sciences.

SMILES | pIC50
Cc1cc(C(=O)NC2CCN(C)CC2)ccc1Nc1ncc2c(n1)N(C1CCCC1)CC(C)(C)C(=O)N2C [I-56, 4-(9-Cyclopentyl-5,7,7-trimethyl-6-oxo-6,7,8,9-tetrahydro-5H-pyrimido[4,5-b][1,4]diazepin-2-ylamino)-3-methyl-N-(1-methyl-piperidin-4-yl)-benzamide] | > 6.30
C=CCN1CC(C)C(=O)N(C)c2cnc(Nc3ccc(C(=O)NC4CCN(C)CC4)cc3OC)nc21 (racemic) [I-65, (rac)-4-(9-Allyl-5,7-dimethyl-6-oxo-6,7,8,9-tetrahydro-5H-pyrimido[4,5-b][1,4]diazepin-2-ylamino)-3-methoxy-N-(1-methyl-piperidin-4-yl)-benzamide] | > 6.30
COc1ccc(C(=O)NCCCN(C)C)cc1Nc1ncc2c(n1)N(C1CCCC1)CC(C)C(=O)N2C (racemic) [I-73, (rac)-3-(9-Cyclopentyl-5,7-dimethyl-6-oxo-6,7,8,9-tetrahydro-5H-pyrimido[4,5-b][1,4]diazepin-2-ylamino)-N-(3-dimethylamino-propyl)-4-methoxy-benzamide] | > 6.30
CC1CN(C2CCCC2)c2nc(Nc3ccc(C(=O)NC4CCOCC4)c(Cl)c3)ncc2N(C)C1=O (racemic) [I-88, (rac)-2-Chloro-4-(9-cyclopentyl-5,7-dimethyl-6-oxo-6,7,8,9-tetrahydro-5H-pyrimido[4,5-b][1,4]diazepin-2-ylamino)-N-(tetrahydro-pyran-4-yl)-benzamide] | 5.30 to 6.30
COc1cc(C(=O)NC2CCN(C)CC2)ccc1Nc1ncc2c(n1)N(C1CCCCC1)CC(C)C(=O)N2C (racemic) [I-19, (rac)-4-(9-Cyclohexyl-5,7-dimethyl-6-oxo-6,7,8,9-tetrahydro-5H-pyrimido[4,5-b][1,4]diazepin-2-ylamino)-3-methoxy-N-(1-methyl-piperidin-4-yl)-benzamide] | > 6.30
COc1cc(C(=O)NC2CCN(C)CC2)ccc1Nc1ncc2c(n1)N1CCC[C@@H]1CC(=O)N2C [I-102, (3R)-3-methoxy-4-(6-methyl-5-oxo-2,3,3a,4,5,6-hexahydro-1H-6,8,10,10b-tetraaza-benzo[e]azulen-9-ylamino)-N-(1-methyl-piperidin-4-yl)-benzamide] | > 6.30
CC1CN(C2CCCC2)c2nc(Nc3ccc(C(=O)NC4CCN(C)CC4)cc3)ncc2N(C)C1=O (racemic) [I-6, (rac)-4-(9-Cyclopentyl-5,7-dimethyl-6-oxo-6,7,8,9-tetrahydro-5H-pyrimido[4,5-b][1,4]diazepin-2-ylamino)-N-(1-methyl-piperidin-4-yl)-benzamide] | > 6.30
CC1CN(C2CCCC2)c2nc(Nc3ccc(O)c(NC(=O)c4ccncc4)c3)ncc2N(C)C1=O (racemic) [I-48, (rac)-N-[5-(9-Cyclopentyl-5,7-dimethyl-6-oxo-6,7,8,9-tetrahydro-5H-pyrimido[4,5-b][1,4]diazepin-2-ylamino)-2-hydroxy-phenyl]-isonicotinamide] | 5.30 to 6.30
COc1cc(C(=O)Nc2ccccc2)ccc1Nc1ncc2c(n1)N(C1CCCCC1)CCC(=O)N2 [I-28, 4-(9-Cyclohexyl-6-oxo-6,7,8,9-tetrahydro-5H-pyrimido[4,5-b][1,4]diazepin-2-ylamino)-3-methoxy-N-phenyl-benzamide] | < 5.30
COCCN1CCC(=O)N(C)c2cnc(Nc3ccc(C(=O)NC4CCN(C)CC4)cc3OC)nc21 [I-40, 3-Methoxy-4-[9-(2-methoxy-ethyl)-5-methyl-6-oxo-6,7,8,9-tetrahydro-5H-pyrimido[4,5-b][1,4]diazepin-2-ylamino]-N-(1-methyl-piperidin-4-yl)-benzamide] | 5.30 to 6.30
Cc1cc(C(=O)NC2CCN(C)CC2)ccc1Nc1ncc2c(n1)N(C1CCCC1)CC(C)C(=O)N2C (racemic) [I-8, (rac)-4-(9-Cyclopentyl-5,7-dimethyl-6-oxo-6,7,8,9-tetrahydro-5H-pyrimido[4,5-b][1,4]diazepin-2-ylamino)-3-methyl-N-(1-methyl-piperidin-4-yl)-benzamide] | > 6.30
CN1CCC(NS(=O)(=O)c2ccc(Nc3ncc4c(n3)N(C3CCCC3)CC(C)(C)C(=O)N4C)cc2)CC1 [I-64, 4-(9-Cyclopentyl-5,7,7-trimethyl-6-oxo-6,7,8,9-tetrahydro-5H-pyrimido[4,5-b][1,4]diazepin-2-ylamino)-N-(1-methyl-piperidin-4-yl)-benzenesulfonamide] | 5.30 to 6.30
COc1cc(C(=O)N(C)C)ccc1Nc1ncc2c(n1)N(C1CCC1)CCC(=O)N2C [I-35, 4-(9-Cyclobutyl-5-methyl-6-oxo-6,7,8,9-tetrahydro-5H-pyrimido[4,5-b][1,4]diazepin-2-ylamino)-3-methoxy-N,N-dimethyl-benzamide] | < 5.30
COc1cc(C(=O)NC2CCN(C)CC2)ccc1Nc1ncc2c(n1)N(C1CCCC1)CC1(CC1)C(=O)N2C [I-54, 4-[(9-Cyclopentyl-6,7,8,9-tetrahydro-5-methyl-6-oxospiro[5H-pyrimido[4,5-b][1,4]diazepine-7,1′-cyclopropan]-2-yl)amino]-3-methoxy-N-(1-methyl-4-piperidinyl)benzamide] | > 6.30
CC1CN(C2CCCC2)c2nc(Nc3cccc(C(=O)NCCN(C)C)c3)ncc2N(C)C1=O (racemic) [I-93, (rac)-3-(9-Cyclopentyl-5,7-dimethyl-6-oxo-6,7,8,9-tetrahydro-5H-pyrimido[4,5-b][1,4]diazepin-2-ylamino)-N-(2-dimethylamino-ethyl)-benzamide] | 5.30 to 6.30
COc1cc(C(=O)NC2CCN(C)CC2)ccc1Nc1ncc2c(n1)N(C1CCCC1)C(C)C(C)C(=O)N2C (racemic) [I-41, (rac)-4-(9-Cyclopentyl-5,7,8-trimethyl-6-oxo-6,7,8,9-tetrahydro-5H-pyrimido[4,5-b][1,4]diazepin-2-ylamino)-3-methoxy-N-(1-methyl-piperidin-4-yl)-benzamide] | > 6.30
CC1CN(C2CCCC2)c2nc(Nc3ccc(O)c(NC(=O)c4cccnc4)c3)ncc2N(C)C1=O (racemic) [I-47, (rac)-N-[5-(9-Cyclopentyl-5,7-dimethyl-6-oxo-6,7,8,9-tetrahydro-5H-pyrimido[4,5-b][1,4]diazepin-2-ylamino)-2-hydroxy-phenyl]-nicotinamide] | 5.30 to 6.30
COc1cc(C(=O)NC2CCN(C)CC2)ccc1Nc1ncc2c(n1)N(C1CCCC1C)CCC(=O)N2C (racemic) [I-57, (rac)-3-Methoxy-4-[5-methyl-9-(2-methyl-cyclopentyl)-6-oxo-6,7,8,9-tetrahydro-5H-pyrimido[4,5-b][1,4]diazepin-2-ylamino]-N-(1-methyl-piperidin-4-yl)-benzamide] | > 6.30
CC1CN(C2CCCC2)c2nc(Nc3ccc(C(=O)NCCN(C)C)c(Cl)c3)ncc2N(C)C1=O (racemic) [I-87, (rac)-2-Chloro-4-(9-cyclopentyl-5,7-dimethyl-6-oxo-6,7,8,9-tetrahydro-5H-pyrimido[4,5-b][1,4]diazepin-2-ylamino)-N-(2-dimethylamino-ethyl)-benzamide] | 5.30 to 6.30
CCCCN1CCC(=O)N(C)c2cnc(Nc3ccc(C(=O)NC4CCN(C)CC4)cc3OC)nc21 [I-44, 4-(9-Butyl-5-methyl-6-oxo-6,7,8,9-tetrahydro-5H-pyrimido[4,5-b][1,4]diazepin-2-ylamino)-3-methoxy-N-(1-methyl-piperidin-4-yl)-benzamide] | > 6.30
COc1cc(C(=O)NCCCn2ccnc2)ccc1Nc1ncc2c(n1)N(C1CCC1)CCC(=O)N2C [I-36, 4-(9-Cyclobutyl-5-methyl-6-oxo-6,7,8,9-tetrahydro-5H-pyrimido[4,5-b][1,4]diazepin-2-ylamino)-N-(3-imidazol-1-yl-propyl)-3-methoxy-benzamide] | > 6.30
COc1cc(C(=O)NN)ccc1Nc1ncc2c(n1)N(C1CCCC1)CC(C)C(=O)N2C (racemic) [I-79, (rac)-4-(9-Cyclopentyl-5,7-dimethyl-6-oxo-6,7,8,9-tetrahydro-5H-pyrimido[4,5-b][1,4]diazepin-2-ylamino)-3-methoxy-benzoic acid hydrazide] | > 6.30
COc1cc(C(=O)NC2CCN(C)CC2)ccc1Nc1ncc2c(n1)N(C(C)C)CCC(=O)N2C [I-43, 4-(9-Isopropyl-5-methyl-6-oxo-6,7,8,9-tetrahydro-5H-pyrimido[4,5-b][1,4]diazepin-2-ylamino)-3-methoxy-N-(1-methyl-piperidin-4-yl)-benzamide] | > 6.30
COc1cc(C(=O)NC2CCN(C)CC2)ccc1Nc1ncc2c(n1)N(C1CCCC1)CC(C)(C)C(=O)N2C [I-39, 4-(9-Cyclopentyl-5,7,7-trimethyl-6-oxo-6,7,8,9-tetrahydro-5H-pyrimido[4,5-b][1,4]diazepin-2-ylamino)-3-methoxy-N-(1-methyl-piperidin-4-yl)-benzamide] | > 6.30
CC1CN(C2CCCC2)c2nc(Nc3ccc(C(=O)NC4CCN(C)CC4)c(Cl)c3)ncc2N(C)C1=O (racemic) [I-84, (rac)-2-Chloro-4-(9-cyclopentyl-5,7-dimethyl-6-oxo-6,7,8,9-tetrahydro-5H-pyrimido[4,5-b][1,4]diazepin-2-ylamino)-N-(1-methyl-piperidin-4-yl)-benzamide] | > 6.30
COc1cc(C(=O)NC2CCOCC2)ccc1Nc1ncc2c(n1)N(C1CCCCC1)CCC(=O)N2 [I-33, 4-(9-Cyclohexyl-6-oxo-6,7,8,9-tetrahydro-5H-pyrimido[4,5-b][1,4]diazepin-2-ylamino)-3-methoxy-N-(tetrahydro-pyran-4-yl)-benzamide] | < 5.30
